For experiment [1], the system named is Human immunodeficiency virus 1. The experiment in a line: Inhibition of syncytium formation using HIV-1 IIIB strain gaint cell inhibition assay. It counts as functional, organism-based. The following applies: read-out: Log 1/EC50 (converted).
In experiment [2] the test system is Human immunodeficiency virus 2. The experiment in a line: Antiretroviral activity against HIV-2 infected HUT-78 cells. As to conditions: Human immunodeficiency virus 2, HuT78; read-out: Log 1/EC50 (converted).
In experiment [3] the test system is HuT78. Kind of experiment: Cellular cytotoxicity against HUT-78 cells. It counts as functional. The following applies: Homo sapiens.
The subject of experiment [4] is Human immunodeficiency virus 1. Kind of experiment: Antiretroviral activity against HIV-1 infected HUT-78 cells. The experiment is classed as functional, organism-based. As to conditions: Human immunodeficiency virus 1, HuT78; read-out: Log 1/EC50 (converted).

As for `COc1cc(CN2CCCNCCNCCCNCC2)c(OC)cc1CN1CCCNCCNCCCNCC1`, the figures for the EC50 in experiment [1], in experiment [2] and in experiment [4] were 13.2 nM, 7.94 nM and 7.08 nM, respectively. The molecule further came in with a CC50 in experiment [3] of 250000 nM.
The corresponding values for `c1cc(CN2CCCNCCNCCCNCC2)nc(CN2CCCNCCNCCCNCC2)c1` are 8130 nM, 66.1 nM, 97.7 nM and 409000 nM.
For the molecule `c1cc(CN2CCNCCCNCCNCC2)cc(CN2CCNCCCNCCNCC2)c1`, the values for the EC50 in experiment [2] and in experiment [4] were 61.7 nM and 40.7 nM, respectively. In addition, in experiment [3], the midpoint of cytotoxicity, the CC50, lay at 192000 nM.
On to `C(CCCN1CCCNCCNCCCNCC1)CCN1CCCNCCNCCCNCC1`, for which the results for the EC50 in experiment [2] and in experiment [4] were 708 nM and 692 nM, respectively. The molecule further displayed a CC50 in experiment [3] of 307000 nM.
For `Brc1cc(CN2CCCNCCNCCCNCC2)cc(CN2CCCNCCNCCCNCC2)c1` the same measures were 53.7 nM, 85.1 nM and 192000 nM.
In the case of `O=[N+]([O-])c1cc(CN2CCCNCCNCCCNCC2)ccc1CN1CCCNCCNCCCNCC1`, the EC50 in experiment [1] was 3240 nM; in experiment [2], 72.4 nM; in experiment [4] it was 64.6 nM. Moreover, the CC50 in experiment [3] was found to be 203000 nM.
The corresponding values for `c1cc(CN2CCCNCCNCCCNCC2)ccc1CN1CCCNCCNCCCNCC1` [PLERIXAFOR] are 47.9 nM, 6.03 nM, 3.98 nM and 241000 nM.
Turning to `c1cc(CN2CCCNCCNCCNCCC2)ccc1CN1CCCNCCCNCCCNCCC1`, in experiment [3], the CC50 is 121000 nM. Also, in experiment [4], the EC50 is 316 nM.
Take `c1cc(CN2CCCNCCCNCCCNCCC2)cc(CN2CCCNCCCNCCCNCCC2)c1`: in experiment [3], the CC50 worked out at 193000 nM. The EC50 in experiment [4] was 16600 nM.
The corresponding values for `c1cc(CCCN2CCCNCCNCCCNCC2)ccc1CCCN1CCCNCCNCCCNCC1` are 283000 nM and 398 nM.
As for `c1cc(CN2CCCNCCCNCCNCCC2)cc(CN2CCCNCCNCCCNCC2)c1`, the results for the EC50 in experiment [2] and in experiment [4] were 759 nM and 85.1 nM, respectively. The molecule also came in with a CC50 in experiment [3] of 422000 nM.
For `c1cc(CC2CNCCNCCCNCCNC2)ccc1CC1CNCCNCCCNCCNC1` the same measures were 676 nM, 501 nM and 406000 nM.
Turning to `c1cc(CN2CCCNCCNCCCNCC2)ccc1CN1CCCNCCNCCNCCC1`, the EC50 was 12.6 nM in experiment [1], 56.2 nM in experiment [2] and 7.94 nM in experiment [4]. The molecule also gave a CC50 in experiment [3] of 500000 nM.
Turning to `C1CNCCNCCCN(CCN2CCCNCCNCCCNCC2)CCNC1`, in experiment [3], the cytotoxic concentration (CC50) was found to be 404000 nM. Further, in experiment [4], the EC50 is 11200 nM.
For `c1ccc2c(CN3CCCNCCNCCCNCC3)ccc(CN3CCCNCCNCCCNCC3)c2c1`, the figures for the EC50 in experiment [1], in experiment [2] and in experiment [4] were 63.1 nM, 38.9 nM and 55 nM, respectively. The same molecule registered a CC50 in experiment [3] of 56000 nM.
The corresponding values for `Cc1cc(CN2CCCNCCNCCCNCC2)c(C)cc1CN1CCCNCCNCCCNCC1` are 33.1 nM, 1.29 nM, 7.59 nM and 250000 nM.
`c1cc(CN2CCCNCCNCCCNCC2)ccc1CN1CCCNCCCNCCCNCC1`: the cytotoxic concentration (CC50) in experiment [3] amounted to 225000 nM.
The molecule `c1ccc(CN2CCCNCCNCCCNCC2)c(CN2CCCNCCNCCCNCC2)c1` showed a CC50 in experiment [3] of 169000 nM. For the same molecule, the EC50 in experiment [4] was 1350 nM.
Take `Brc1c(CN2CCCNCCNCCCNCC2)cccc1CN1CCCNCCNCCCNCC1`: the EC50 in experiment [2] was 245 nM; in experiment [4] it was 138 nM. The same molecule gave a CC50 in experiment [3] of 144000 nM.
On to `c1cc(CN2CCCNCCNCCCNCC2)cc(CN2CCCNCCNCCCNCC2)c1`, for which the EC50 in experiment [1] was 4170 nM; in experiment [2], 41.7 nM; in experiment [4] it was 33.9 nM. The molecule also gave a CC50 in experiment [3] of 422000 nM.
`C1CNCCNCCCN[C@H]([C@@H]2CNCCCNCCNCCCN2)CNC1` yielded a CC50 in experiment [3] of 369000 nM. Moreover, in experiment [4], the EC50 was 158 nM.
`c1ccc2c(CN3CCCNCCNCCCNCC3)cc(CN3CCCNCCNCCCNCC3)cc2c1`: the results for the EC50 in experiment [2] and in experiment [4] were 79.4 nM and 158 nM, respectively. The molecule also yielded a CC50 in experiment [3] of 208000 nM.
As for `c1cc(CN2CCCNCCNCCNCCC2)ccc1CN1CCCNCCNCCNCCC1`, the EC50 in experiment [2] was 58.9 nM; in experiment [4], 25.1 nM. Further, in experiment [3], the midpoint of cytotoxicity, the CC50, lay at 500000 nM.
As to `c1ccc(-c2cc(CN3CCCNCCNCCCNCC3)cc(CN3CCCNCCNCCCNCC3)c2)cc1`, the EC50 in experiment [1] is 316 nM; in experiment [2], 24.5 nM; in experiment [4], 204 nM. Besides, in experiment [3], the midpoint of cytotoxicity, the CC50, lay at 198000 nM.
Consider `c1cc(CN2CCCNCCCNCCNCCC2)cc(CN2CCCNCCCNCCNCCC2)c1`, for which the EC50 in experiment [2] was 646 nM; in experiment [4], 324 nM. The molecule further had a CC50 in experiment [3] of 403000 nM.
On to `Fc1c(F)c(CN2CCCNCCNCCCNCC2)c(F)c(F)c1CN1CCCNCCNCCCNCC1`, for which the EC50 in experiment [1] is 31.6 nM; in experiment [2], 7.94 nM; in experiment [4], 7.94 nM. In experiment [3], this molecule yielded a CC50 of 48000 nM.
For `Clc1c(Cl)c(CN2CCCNCCNCCCNCC2)c(Cl)c(CN2CCCNCCNCCCNCC2)c1Cl`, the EC50 in experiment [1] was 6030 nM; in experiment [2], 2.51 nM; in experiment [4], 200 nM. The molecule further had a CC50 in experiment [3] of 12000 nM.
Regarding `C1CNCCNCCCN(CCCN2CCCNCCNCCCNCC2)CCNC1`, the EC50 in experiment [1] was 12300 nM; in experiment [4], 138 nM. This molecule also came in with a CC50 in experiment [3] of 622000 nM.
For the molecule `NCCCNCCNCCCNCc1ccc(CN2CCCNCCNCCCNCC2)cc1`, the EC50 is 708 nM in experiment [2] and 372 nM in experiment [4]. Also, the CC50 in experiment [3] stood at 445000 nM.
Take `O=[N+]([O-])c1cc(CN2CCCNCCNCCCNCC2)cc(CN2CCCNCCNCCCNCC2)c1`: the EC50 in experiment [1] was 64.6 nM; in experiment [2], 56.2 nM; in experiment [4], 40.7 nM. This molecule also returned a CC50 in experiment [3] of 45000 nM.
`CCN1CCCN(CC)CCN(Cc2ccc(CN3CCCN(CC)CCN(CC)CCCN(CC)CC3)cc2)CCCN(CC)CC1`: the EC50 was 33900 nM in experiment [1] and 7760 nM in experiment [4]. Half-maximal cytotoxicity in experiment [3] (CC50) was put at 342000 nM.
As for `c1cc(CN2CCNCCCNCCNCC2)ccc1CN1CCNCCCNCCNCC1`, the EC50 is 234 nM in experiment [2] and 166 nM in experiment [4]. The same molecule displayed a CC50 in experiment [3] of 216000 nM.
In the case of `Clc1cc(CN2CCCNCCNCCCNCC2)c(Cl)cc1CN1CCCNCCNCCCNCC1`, the EC50 in experiment [1] was 331 nM; in experiment [2] it was 2.45 nM; in experiment [4], 10.7 nM. Also, half-maximal cytotoxicity in experiment [3] (CC50) was put at 59000 nM.
Take `c1ncc(CN2CCCNCCNCCCNCC2)cc1CN1CCCNCCNCCCNCC1`: the figures for the EC50 in experiment [2] and in experiment [4] were 70.8 nM and 31.6 nM, respectively. The same molecule gave a CC50 in experiment [3] of 395000 nM.
In experiment [3], `c1cc(CN2CCCNCCCNCCCNCCC2)ccc1CN1CCCNCCCNCCCNCCC1` showed a CC50 of 49000 nM. The EC50 in experiment [4] was 9120 nM.
The corresponding values for `c1cc(CN2CCCNCCCNCCCNCC2)cc(CN2CCCNCCCNCCCNCC2)c1` are 191000 nM and 2750 nM.
In the case of `Fc1c(CN2CCCNCCNCCCNCC2)cccc1CN1CCCNCCNCCCNCC1`, the EC50 in experiment [2] is 74.1 nM; in experiment [4] it was 34.7 nM. The molecule further had a CC50 in experiment [3] of 202000 nM.

As a reminder, the CC50 is the concentration giving 50% cytotoxicity.
